This is an account of results in paper PMC12434071, “Platinum-group metal half-sandwich complexes of 1-(α-D-glucopyranosyl)-4-hetaryl-1,2,3-triazoles: synthesis, solution equilibrium studies, and investigation of their anticancer and antimicrobial activities” (Frontiers in Chemistry, 2025).

Assay type in all cases: cell-based
One assay has as its system A2780 cells. Briefly: MTT reduction assay on A2780 cells. To be noted: maximal inhibition; 4 h treatment; maximum concentration 100 µM. The procedure: For MTT assays, 4 × 10^3 A2780 cells were plated into 96-well plates, and for SRB assays, 1.5 × 10^3 A2780 cells were plated into 96-well plates. Cells were treated with the compounds in the concentrations indicated for either 4 h for an MTT assay or for 48 h for an SRB assay. Data are represented as average ± SD, from four biological replicates, with the exception of the MTT dataset of Ir-2b and the SRB datasets of 2b, Ru/Ir-2b, and Ir-3a, which were derived from three biological replicates. Individual assays were performed in duplicate. Values were normalized for vehicle-treated cells, and the absorbance for vehicle-treated cells equals 1. Data are represented as fold change compared to vehicle-treated controls. Normality was assessed using the D'Agostino-Pearson test. Statistical significance was assessed using a two-way ANOVA test followed by Tukey's post hoc test. For better visibility, normality, transformations, statistical tests, and p values are presented in an MS Excel sheet at https://figshare.com/s/3a0aa60b66f3f746f41e. Color code: black-free ligand (2a,b or 3a), khaki-ruthenium complex (Ru-2a,b or Ru-3a), green-iridium complex (Ir-2a,b or Ir-3a).  FIGURE 5 The ruthenium, osmium, and iridium complexes of ligands 4a, 4b, and 5a decrease MTT reduction. For MTT assays, 4 × 10^3 A2780 cells, 3 × 10^3 ID8 cells, or 6 × 10^3 human primary fibroblasts were plated into 96-well plates. Cells were treated with the compounds in the concentrations indicated for 4 h. Data are represented as average ± SD, from four biological replicates on A2780, and from three biological replicates on ID8 and human primary fibroblasts. For the datasets of 5a and Os-5a on human primary fibroblasts, the data represent four biological replicates. Individual assays were performed in duplicate. Values were normalized for vehicle-treated cells, and the absorbance for vehicle-treated cells equals 1. Normality was assessed using the D'Agostino-Pearson test. Statistical significance was assessed using a two-way ANOVA test followed by Tukey's post hoc test. For better visibility, normality, transformations, statistical tests, and p values are presented in an MS Excel sheet at https://figshare.com/s/3a0aa60b66f3f746f41e. Color code: black-free ligand (4a,b or 5a), khaki-ruthenium complex (Ru-4a,b), green-iridium complex (Ir-4a,b), blue-osmium complex (Os-4a,b or Os-5a), and red-rhodium complex (Rh-4a,b). An MTT reduction assay measures the activity of mitochondrial complex I and can be used to detect toxicity ([[…] et al., 2016]). The assay was performed in a manner similar to that described by [[…] et al. (2023b)]. Briefly, cells were plated into 96-well plates the day before the assay. Cells were treated with the compounds for 4 h; then, MTT was added to a 0.5 mg/mL final concentration, and cells were incubated at 37°C in a cell incubator for 40-60 min, as a function of the cell line being assessed. The culture medium was removed, the reduced MTT dye was dissolved in dimethylsulfoxide, and plates were measured in a plate photometer (Thermo Scientific Multiscan GO spectrophotometer, Waltham, MA, United States) at 540 nm. Certain wells were designated to contain vehicle-treated cells on each plate. In calculations, the readings for these wells were considered to 1, and all readings were expressed relative to these values. Statistical analysis was performed using version 8.0.1 of GraphPad Prism. Values were tested for normal distribution using the D'Agostino-Pearson or Shapiro-Wilk normality tests. When necessary, values were log-normalized or normalized using the Box-Cox or two-step normalization method ([Box and Cox, 1964]), as indicated in the MS Excel file listing the values at https://figshare.com/s/3a0aa60b66f3f746f41e. The following statistical test, post hoc test, and the level of significance are indicated in the MS Excel file listing the values at https://figshare.com/s/3a0aa60b66f3f746f41e. […]

In a further assay the test system is ID8 cells. Description: SRB assay on ID8 cells. To be noted: maximal inhibition; 48 h treatment; maximum concentration 100 µM. The procedure:
(§1) FIGURE 7 The ruthenium, osmium, and iridium complexes of ligands 4a, 4b, and 5a are cytostatic on ovarian cancer models with a good therapeutic index. For SRB assays, 1.5 × 10^3 A2780 cells, 1.5 × 10^3 ID8 cells, or 4 × 10^3 primary fibroblasts were plated into 96-well plates. Cells were treated with the compounds in the concentrations indicated for 48 h. Data are represented as average ± SD, from four biological replicates on A2780 and human primary fibroblasts, except in the case of Os complexes, where experiments were performed in three biological replicates. ID8 cells were assessed in three biological replicates. Individual assays were performed in duplicate. Values were normalized for vehicle-treated cells, and the absorbance for vehicle-treated cells equals 1. Normality was assessed using the D’Agostino–Pearson test. Statistical significance was assessed using a two-way ANOVA test followed by Tukey’s post hoc test. For better visibility, normality, transformations, statistical tests, and p values are presented in an MS Excel sheet at https://figshare.com/s/3a0aa60b66f3f746f41e. Color code: black—free ligand (4a,b or 5a), khaki—ruthenium complex (Ru-4a,b), blue—osmium complex (Os-4a,b or Os-5a), green—iridium complex (Ir-4a,b), and red—rhodium complex (Rh-4a,b). An SRB assay measures protein content of cells in correlation with the cell number in an assay well and can therefore be used to assess cell proliferation or long-term cytostasis ([Skehan et al., 1990]). Cells were seeded into 96-well plates the day before the treatment for the assay. Cells were treated with the various compounds for 48 h. Then, the medium was removed, and cells were fixed with 10% trichloroacetic acid. Fixed cells were washed in distilled water three times, followed by staining with SRB (0.4 m/V% dissolved in 1% acetic acid) for 10 min. Stained cells were washed in 1% acetic acid five times; the acetic acid was removed, and the cells were left to dry. […] Plates were measured in a plate photometer (Thermo Scientific Multiscan GO spectrophotometer, Waltham, MA, United States) at 540 nm. […]

Assay [1] has as its system human primary dermal fibroblasts. Briefly: SRB assay on human primary dermal fibroblasts. The conditions noted are these: maximal inhibition; 48 h treatment; maximum concentration 100 µM. As to the method:
as §1

For `O=C(OC[C@H]1O[C@H](n2cc(-c3ccc4ccccc4n3)nn2)[C@H](OC(=O)c2ccccc2)[C@@H](OC(=O)c2ccccc2)[C@@H]1OC(=O)c1ccccc1)c1ccccc1` [Complex 4b, 1-(2’,3’,4’,6’-Tetra-O-benzoyl-α-D-glucopyranosyl)-4-(quinolin-2-yl)-1,2,3-triazole], the “A2780 MTT max %” value with A2780 cells was found to be 0%. The “ID8 SRB max %” value in the assay on ID8 cells amounted to 0%. Further, the “Fibroblast SRB max %” value in assay [1] worked out at 10.76%.

On to `OC[C@H]1O[C@H](n2cc(-c3ccccn3)nn2)[C@H](O)[C@@H](O)[C@@H]1O` [Complex 3a, 1-(α-D-Glucopyranosyl)-4-(pyridin-2-yl)-1,2,3-triazole], for which the “A2780 MTT max %” value with A2780 cells is on record as 0%.

On to `CCCCC(=O)OC[C@H]1O[C@H](n2cc(-c3ccccn3)nn2)[C@H](OC(=O)CCCC)[C@@H](OC(=O)CCCC)[C@@H]1OC(=O)CCCC` [Complex 5a, 1-(2’,3’,4’,6’-Tetra-O-pentanoyl-α-D-glucopyranosyl)-4-(pyridin-2-yl)-1,2,3-triazole], for which the “A2780 MTT max %” value in the assay on A2780 cells was 0%. The “ID8 SRB max %” value in the assay on ID8 cells stood at 0%. In assay [1], the “Fibroblast SRB max %” value came to 27.97%.

Consider `O=C(OC[C@H]1O[C@H](n2cc(-c3ccccn3)nn2)[C@H](OC(=O)c2ccccc2)[C@@H](OC(=O)c2ccccc2)[C@@H]1OC(=O)c1ccccc1)c1ccccc1` [Complex 4a, 1-(2’,3’,4’,6’-Tetra-O-benzoyl-α-D-glucopyranosyl)-4-(pyridin-2-yl)-1,2,3-triazole], for which the “A2780 MTT max %” value with A2780 cells is 0%. In the assay on ID8 cells, the “ID8 SRB max %” value is recorded as 0%. Further, in assay [1], the “Fibroblast SRB max %” value was 11.89%.
